Structures are written as SMILES. The source made the active and inactive calls. No cut-off for these calls is given here.

Experiment [1] in a line: Inhibition of chymotrypsin.
The nature of experiment [2]: Inhibition of trypsin at 42 degC.
Experiment [3] is described as follows: Inhibition of trypsin by classical double reciprocal plot.
Experiment [4] can be described thus: Inhibition of trypsin at 32 degC.
Experiment [5] in a line: Inhibition of trypsin by Dixon plot.
A short description of experiment [6]: Inhibition of trypsin at 37 degC.
Experiment [7] can be described thus: Inhibition of trypsin.

As to `O=C(O)c1ccc(C(=O)O)c2c1c(C(=O)O)c1cccnc1[n+]2C(=O)O`, the outcome in experiment [1] was inactive. Besides, the Ki in experiment [2] turned out to be 94 µM; in experiment [3] it was 105 µM; in experiment [4] it was 102 µM; in experiment [5] it was 97.1 µM; in experiment [6], 97.1 µM. The compound further came in with an IC50 in experiment [7] of 102 µM.

One may read the Ki as the equilibrium dissociation constant of an inhibitor or competing ligand from its target. Low values mean a stronger hold on the target, high ones a looser hold on the target. The IC50 is the midpoint of a concentration-inhibition curve. A high value points to a need for much substance.

(Values after ChEMBL document CHEMBL1155065, “A serine protease inhibitor from hemolymph of green mussel, Perna viridis” (Bioorg Med Chem Lett, 2008).)
